Assay results taken from ChEMBL document CHEMBL5584316, “Arcopilins: A New Family of Staphylococcus aureus Biofilm Disruptors from the Soil Fungus Arcopilus navicularis” (J Med Chem, 2024).
Calls of active or inactive are those of the source. No cut-off for these calls is given here.

Key:
Escherichia coli = assay: Antimicrobial activity against Escherichia coli DSM 1116 assessed as inhibition of microbial growth incubated overnight by serial dilution method; assay type: functional, organism-based
Pseudomonas aeruginosa = assay: Antimicrobial activity against Pseudomonas aeruginosa PA14 assessed as inhibition of microbial growth incubated overnight by serial dilution method; assay type: functional, organism-based
[1] = system: Chromobacterium violaceum; assay: Antimicrobial activity against Chromobacterium violaceum DSM 30191 assessed as inhibition of microbial growth incubated overnight by serial dilution method; assay type: functional, organism-based
[2] = system: Mycolicibacterium smegmatis; assay: Antimicrobial activity against Mycobacterium smegmatis ATCC 700084 assessed as inhibition of microbial growth incubated overnight by serial dilution method; assay type: functional
Wickerhamomyces anomalus = assay: Antimicrobial activity against Wickerhamomyces anomalus DSM 6766 assessed as inhibition of microbial growth incubated overnight by serial dilution method; assay type: functional, organism-based
[3] = system: Schizosaccharomyces pombe; assay: Antimicrobial activity against Schizosaccharomyces pombe DSM 70572 assessed as inhibition of microbial growth incubated overnight by serial dilution method; assay type: functional
Candida albicans = assay: Antimicrobial activity against Candida albicans DSM 1665 assessed as inhibition of microbial growth incubated overnight by serial dilution method; assay type: functional
Mucor hiemalis = assay: Antimicrobial activity against Mucor hiemalis DSM 2656 assessed as inhibition of microbial growth incubated overnight by serial dilution method; assay type: functional
Rhodotorula glutinis = assay: Antimicrobial activity against Rhodotorula glutinis DSM 10134 assessed as inhibition of microbial growth incubated overnight by serial dilution method; assay type: functional, organism-based
Staphylococcus aureus [4] = assay: Antibiofilm activity in Staphylococcus aureus DSM1104 assessed as disruption of preformed biofilm at 3.9 to 250 ug/ml incubated for 18 hrs by crystal violet staining based assay; assay type: functional, organism-based; conditions: dose 3.9-250 µg/ml
Staphylococcus aureus [5] = assay: Antimicrobial activity against Staphylococcus aureus DSM 346 assessed as inhibition of microbial growth incubated overnight by serial dilution method; assay type: functional
Staphylococcus aureus [6] = assay: Antibiofilm activity in Staphylococcus aureus DSM1104 assessed as disruption of preformed biofilm at 31.3 ug/ml incubated for 18 hrs by crystal violet staining based assay; assay type: functional, organism-based; conditions: dose 31.3 µg/ml
Staphylococcus aureus [7] = assay: Antimicrobial activity against Staphylococcus aureus DSM 1104 assessed as inhibition of microbial growth incubated overnight by serial dilution method; assay type: functional; conditions: DSM1104
Bacillus subtilis = assay: Antimicrobial activity against Bacillus subtilis DSM 10 assessed as inhibition of microbial growth incubated overnight by serial dilution method; assay type: functional
KB 3-1 = assay: Cytotoxicity against human KB-3-1 cells assessed as inhibition of cell growth incubated for 5 days by MTT assay; assay type: toxicity, cell-based; conditions: kb 3-1, 120 h, time 5 day
L929 = assay: Cytotoxicity against mouse L929 cells assessed as inhibition of cell growth incubated for 5 days by MTT assay; assay type: toxicity, cell-based; conditions: l929, 120 h, time 5 day
Staphylococcus aureus [8] = assay: Antibiofilm activity in Staphylococcus aureus DSM1104 assessed as disruption of preformed biofilm at 7.8 to 250 ug/ml incubated for 18 hrs by crystal violet staining based assay relative to control; assay type: functional; conditions: dose 7.8-250 µg/ml, at 7.8 to 250 µg/mL
Staphylococcus aureus [9] = assay: Antibiofilm activity in Staphylococcus aureus DSM1104 assessed as disruption of preformed biofilm at 3.9 ug/ml incubated for 18 hrs by crystal violet staining based assay relative to control; assay type: functional; conditions: dose 3.9 µg/ml
Staphylococcus aureus [10] = assay: Antibiofilm activity in Staphylococcus aureus DSM1104 assessed as disruption of preformed biofilm; assay type: functional, organism-based
Staphylococcus aureus [11] = assay: Antibiofilm activity in Staphylococcus aureus DSM1104 assessed as disruption of preformed biofilm at […] to […] ug/ml incubated for 18 hrs by crystal violet staining based assay relative to control; assay type: functional; conditions: dose lower […] microg/ml, dose upper 250 µg/ml
Staphylococcus aureus [12] = assay: Antimicrobial activity against Staphylococcus aureus DSM 346 assessed as inhibition of microbial growth at 3.9 to 7.8 ug/ml measured for 10 hrs; assay type: functional, organism-based; conditions: DSM346, dose 3.9-7.8 µg/ml
Staphylococcus aureus [13] = assay: Antimicrobial activity against Staphylococcus aureus DSM 1104 assessed as disruption of preformed biofilm by measuring reduction in metabolic activity at 3.9 ug/ml incubated for 24 hrs by XTT assay; assay type: functional, organism-based; conditions: dose 3.9 µg/ml
Staphylococcus aureus [14] = assay: Antimicrobial activity against Staphylococcus aureus DSM 1104 assessed as disruption of preformed biofilm by measuring reduction in metabolic activity at 2 to 7.8 ug/ml measured every 90 mins for 10 hrs by absorbance based analysis; assay type: functional, organism-based; conditions: dose 2-7.8 µg/ml
Staphylococcus aureus [15] = assay: Synergistic antimicrobial activity against Staphylococcus aureus DSM 1104 planktonic cells assessed as gentamicin MIC at 3.9 ug/ml by checkerboard assay; assay type: functional; conditions: dose 3.9 µg/ml
Staphylococcus aureus [16] = assay: Synergistic antimicrobial activity against Staphylococcus aureus DSM 1104 planktonic cells assessed as fractional inhibitory concentration index at 3.9 ug/ml in presence of gentamicin by checkerboard assay; assay type: functional; conditions: dose 3.9 µg/ml
Staphylococcus aureus [17] = assay: Synergistic antimicrobial activity against Staphylococcus aureus DSM 1104 planktonic cells assessed as vancomycin MIC at 3.9 ug/ml by checkerboard assay; assay type: functional; conditions: dose 3.9 µg/ml
Staphylococcus aureus [18] = assay: Synergistic antimicrobial activity against Staphylococcus aureus DSM 1104 planktonic cells assessed as fractional inhibitory concentration index at 3.9 ug/ml in presence of vancomycin by checkerboard assay; assay type: functional; conditions: dose 3.9 µg/ml
Staphylococcus aureus [19] = assay: Synergistic antimicrobial activity against Staphylococcus aureus DSM 1104 planktonic cells assessed as fold increase in gentamicin potency at 3.9 ug/ml by checkerboard assay relative to control; assay type: functional; conditions: dose 3.9 µg/ml
Staphylococcus aureus [20] = assay: Synergistic antimicrobial activity against Staphylococcus aureus DSM 1104 planktonic cells assessed as inhibition of preformed biofilm by measuring fold increase in gentamicin potency at 3.9 to 7.8 ug/ml measured at 24 to 48 hrs by CFU counting assay relative to control; assay type: functional; conditions: dose 3.9-7.8 µg/ml; time 24-48 hrs
Staphylococcus aureus [21] = assay: Synergistic antimicrobial activity against Staphylococcus aureus DSM 1104 planktonic cells assessed as inhibition of preformed biofilm by measuring fold increase in vancomycin potency at 3.9 to 7.8 ug/ml measured at 24 to 48 hrs by CFU counting assay relative to control; assay type: functional; conditions: dose 3.9-7.8 µg/ml; time 24-48 hrs

Compound	Activity (Escherichia coli)	Activity (Pseudomonas aeruginosa)	Activity [1]	Activity [2]	Activity (Wickerhamomyces anomalus)	Activity [3]	Activity (Candida albicans)	Activity (Mucor hiemalis)	Activity (Rhodotorula glutinis)	Activity (Staphylococcus aureus [5])	Activity (KB 3-1)	Activity (L929)	other results
CC[C@H](C)[C@@H]1O[C@H](c2c(O)c(-c3ccccc3)cn(O)c2=O)[C@@H](C)C[C@@H]1C	inactive	inactive	inactive	inactive	inactive	inactive	inactive	inactive	inactive				Activity (Staphylococcus aureus [4]): inactive
NYSTATIN													MIC (Wickerhamomyces anomalus): 8.3 mg/L; MIC [3]: 4.2 mg/L; MIC (Mucor hiemalis): 8.3 mg/L; MIC (Rhodotorula glutinis): 4.2 mg/L
CC[C@H](C)C[C@@H](C)C[C@H](C)C(=O)C1=C(O)/C(=C/c2ccccc2)NC1=O	inactive	inactive	inactive		inactive	inactive	inactive		inactive	inactive			Activity (Staphylococcus aureus [6]): Active
GENTAMICIN													MIC (Escherichia coli): 1.7 mg/L; MIC (Pseudomonas aeruginosa): 0.21 mg/L; MIC (Staphylococcus aureus [5]): 0.4 mg/L; MIC (Staphylococcus aureus [7]): 15.7 mg/L; MIC [1]: 0.42 mg/L
C[C@@H](C[C@H](C)C(=O)C1=C(O)/C(=C/c2ccccc2)NC1=O)C[C@](C)(O)[C@@H](O)CO	inactive	inactive	inactive	inactive	inactive	inactive	inactive	inactive	inactive	inactive	Non-Toxic	Non-Toxic	Activity (Bacillus subtilis): inactive
C[C@@H](C[C@H](C)C(=O)C1=C(O)/C(=C/c2ccccc2)NC1=O)C[C@](C)(O)C(=O)CO	inactive	inactive	inactive	inactive	inactive	inactive	inactive	inactive	inactive	inactive	Non-Toxic	Non-Toxic	Activity (Bacillus subtilis): inactive
C[C@H](C[C@@H](C)[C@H](C)OC=O)C[C@H](C)C(=O)C1=C(O)/C(=C/c2ccccc2)NC1=O	inactive	inactive	inactive	inactive	inactive	inactive	inactive		inactive				Activity (Staphylococcus aureus [8]): 50%; Activity (Staphylococcus aureus [9]): 35%
CCC(/C=C(C)/C=C/C(=O)c1c(O)c(-c2ccc(O)cc2)cn(O)c1=O)CO (centres undefined)													Activity (Staphylococcus aureus [10]): inactive
C[C@H](C[C@@H](C)[C@H](C)O)C[C@H](C)C(=O)C1=C(O)/C(=C/c2ccccc2)NC1=O	inactive	inactive	inactive	inactive	inactive	inactive	inactive	inactive	inactive		Non-Toxic	Non-Toxic	
CC(=O)[C@H](C)C[C@@H](C)C[C@H](C)C(=O)C1=C(O)/C(=C/c2ccccc2)NC1=O	inactive	inactive	inactive	inactive	inactive				inactive				Activity (Staphylococcus aureus [11]): ~50%; Activity (Staphylococcus aureus [9]): 35%; Activity (Staphylococcus aureus [12]): Active; Activity (Staphylococcus aureus [13]): Active; Activity (Staphylococcus aureus [14]): Active; MIC (Staphylococcus aureus [15]): 0.13 mg/L; fractional inhibitory concentration index (FICI) (Staphylococcus aureus [16]): 0.126; MIC (Staphylococcus aureus [17]): 0.065 mg/L; fractional inhibitory concentration index (FICI) (Staphylococcus aureus [18]): 0.158; fold change (FC) (Staphylococcus aureus [19]): 115; fold change (FC) (Staphylococcus aureus [20]): 3; fold change (FC) (Staphylococcus aureus [21]): 3
